Experimental data from patent publication US8865704B2, “Wnt pathway antagonists” (Siena Biotech S.p.A., priority 2009, dated 2014).
pIC50: −log10 of the molar value.

Legend:
Wnt/β-catenin pathway = test: Wnt reporter assay (TCF-Luciferase, Firefly) in DBTRG-05MG cells; assay type: cell-based; conditions: Homo sapiens, 24 hours after compound addition
In short: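 DBTRG-05MG cells carrying a 4×TCF-driven firefly luciferase reporter, kept under Zeocin or Zeocin plus Hygromicin selection. Compounds added 36 hours after plating at 8 points from 60 μM to 0.185 μM (0.6% DMSO), triplicate, for 24 hours. Firefly and Renilla luminescence each expressed as % of control; IC50 from four-parameter sigmoid fit.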

DBTRG cells = test: Soft agar anchorage independent assay; assay type: cell-based; conditions: 504 h, colonies scored 3 weeks later, read-out: 1050 value in the soft agar assay
Protocol: The pharmacological activity of the compounds of the invention may be tested in vitro for growth inhibition against tumour cell lines. Such cell lines may, for example be representative of glioblastoma (such as DBTRG-05MG), or colorectal (for example DLD-1, HCT116) cancer. The different genetic background of the cancer cell will facilitate to understand to which level of the pathway the compounds work. If the cells harbour a truncated APC allele, the destruction complex activity is affected; if cells carry a gain of function mutation in the β-catenin gene, which prevents β-catenin protein degradation, this leads to constitutive activation of downstream genes. There are many assays available for testing the growth inhibition.
Soft Agar Anchorage Independent Assay
DBTRG cells were seeded into a 24-well format in the presence of carrier alone or compound (0.6% DMSO (v/v)). Each well is composed of two agar layers: the bottom layer consists of 0.6% Agar while the top has 0.35% Agar plus cells and compound. Cells (2500 per well) were incubated with 7 points dilution compound the day of the plating and the colonies were scored 3 weeks later after o/n staining with MTT solution. Imaging and counting of the colonies was done with the GelCount™ instrument (Oxford Optronix, UK). For IC50 determination the data were expressed as % of control, values were calculated using XLFit version 4.2, with a four parameters sigmoid function (XLFit model 205).

| SMILES | pIC50 (Wnt/β-catenin pathway) | pIC50 (DBTRG cells) |
| --- | --- | --- |
| O=C(C1CCCC1)N1CCN(C(=O)[C@H]2CC[C@H](Cn3c(=O)[nH]c4ccccc4c3=O)CC2)CC1 [Example 29] | 4.52 to 6.52 | 4.52 to 6.05 |
| O=c1[nH]c2ccccc2c(=O)n1C[C@H]1CC[C@H](C(=O)N2CCN(c3cnccn3)CC2)CC1 [Example 57] | 4.52 to 6.52 | 4.52 to 6.05 |
| O=C(c1ccco1)N1CCN(C(=O)C2CCC(Cn3c(=O)[nH]c4ccccc4c3=O)CC2)CC1 (stereo not shown) [Example 48] | 4.52 to 6.52 | 4.52 to 6.05 |
| COc1ccc2[nH]c(=O)n(C[C@H]3CC[C@H](C(=O)N4CCN(C(=O)C5CC5)CC4)CC3)c(=O)c2c1 [Example 75] | 4.52 to 6.52 | 4.52 to 6.05 |
| O=C(CC1CCCCC1)N1CCN(C(=O)[C@H]2CC[C@H](Cn3c(=O)[nH]c4ccccc4c3=O)CC2)CC1 [Example 59] | 4.52 to 6.52 | 4.52 to 6.05 |
| CC(=O)N1CCN(C(=O)[C@H]2CC[C@H](Cn3c(=O)[nH]c4ccc(Cl)cc4c3=O)CC2)CC1 [Example 27] | 4.52 to 6.52 | 4.52 to 6.05 |
| O=C(c1cccs1)N1CCN(C(=O)[C@H]2CC[C@H](Cn3c(=O)[nH]c4ccccc4c3=O)CC2)CC1 [Example 37] | 4.52 to 6.52 | 4.52 to 6.05 |
| O=c1[nH]c2ccccc2c(=O)n1C[C@H]1CC[C@H](C(=O)N2CCN(c3ccc(F)cc3)CC2)CC1 [Example 20] | 4.52 to 6.52 | 4.52 to 6.05 |
| CCCC(=O)N1CCN(C(=O)[C@H]2CC[C@H](Cn3c(=O)c4ccccc4n(C)c3=O)CC2)CC1 [Example 5, 3-[trans-4-(4-Butyryl-piperazine-1-carbonyl)-cyclohexylmethyl]-1-methyl-1H-quinazoline-2,4-dione] | 4.52 to 6.52 | 4.52 to 6.05 |
| COc1ccc2[nH]c(=O)n(C[C@H]3CC[C@H](C(=O)N4CCN(C(=O)C(C)C)CC4)CC3)c(=O)c2c1 [Example 3, 3-[trans-4-(4-Isobutyryl-piperazine-1-carbonyl)-cyclohexylmethyl]-6-methoxy-1H-quinazoline-2,4-dione] | 4.52 to 6.52 | 4.52 to 6.05 |
| O=C(C1CCC(Cn2c(=O)[nH]c3ccccc3c2=O)CC1)N1CCN(C(=O)C2CC2)CC1 (stereo not shown) [Example 47] | 4.52 to 6.52 | 4.52 to 6.05 |
| COCC(=O)N1CCN(C(=O)[C@H]2CC[C@H](Cn3c(=O)[nH]c4ccc(OC)cc4c3=O)CC2)CC1 [Example 77] | 4.52 to 6.52 | 4.52 to 6.05 |
| O=C(C1CCC1)N1CCN(C(=O)[C@H]2CC[C@H](Cn3c(=O)[nH]c4ccccc4c3=O)CC2)CC1 [Example 60] | 4.52 to 6.52 | 4.52 to 6.05 |
| CC(C)C(=O)N1CCN(C(=O)[C@H]2CC[C@H](Cn3c(=O)[nH]c4ccccc43)CC2)CC1 [Example 58] | 4.52 to 6.52 | 4.52 to 6.05 |
| Cn1c(=O)n(C[C@H]2CC[C@H](C(=O)N3CCN(C(=O)C4CC4)CC3)CC2)c(=O)c2ccccc21 [Example 56] | 4.52 to 6.52 | 4.52 to 6.05 |
| COc1ccccc1N1CCN(C(=O)[C@H]2CC[C@H](Cn3c(=O)[nH]c4ccccc4c3=O)CC2)CC1 [Example 21] | 4.52 to 6.52 | 4.52 to 6.05 |
| COc1ccc2c(c1)c(=O)n(C[C@H]1CC[C@H](C(=O)N3CCN(C(=O)C4CC4)CC3)CC1)c(=O)n2C [Example 78] | 4.52 to 6.52 | 4.52 to 6.05 |
| O=c1[nH]c2ccc(Cl)cc2c(=O)n1C[C@H]1CC[C@H](C(=O)N2CCN(c3ccccc3)CC2)CC1 [Example 26] | 4.52 to 6.52 | 4.52 to 6.05 |
| Cn1c(=O)n(C[C@H]2CC[C@H](C(=O)N3CCOCC3)CC2)c2cc(C(F)(F)F)ccc21 [Example 10, 1-Methyl-3-[trans-4-(morpholine-4-carbonyl)-cyclohexylmethyl]-5-trifluoromethyl-1,3-dihydro-benzoimidazol-2-one] | 4.52 to 6.52 | 4.52 to 6.05 |
| O=C(C1CCC(Cn2c(=O)[nH]c3ccccc3c2=O)CC1)N1CCN(c2ccccc2)CC1 (stereo not shown) [Example 18] | 4.52 to 6.52 | 4.52 to 6.05 |
| O=C(C1CC1)N1CCN(C(=O)[C@H]2CC[C@H](Cn3c(=O)c4ccccc4n(CCF)c3=O)CC2)CC1 [Example 79] | 4.52 to 6.52 | 4.52 to 6.05 |
| Cn1c(=O)n(C[C@H]2CC[C@H](C(=O)N3CCN(C(=O)C4CC4)CC3)CC2)c2ccccc21 [Example 80] | 4.52 to 6.52 | 4.52 to 6.05 |
| COc1ccc2c(c1)CN(C[C@H]1CC[C@H](C(=O)N3CCN(C(=O)C4CC4)CC3)CC1)C(=O)N2 [Example 71] | 4.52 to 6.52 | 4.52 to 6.05 |
| COCC(=O)N1CCN(C(=O)[C@H]2CC[C@H](Cn3c(=O)c4cc(OC)ccc4n(C)c3=O)CC2)CC1 [Example 66] | 4.52 to 6.52 | 4.52 to 6.05 |
| Cn1c(=O)n(C[C@H]2CC[C@H](C(=O)N3CCN(C(=O)C4CCCO4)CC3)CC2)c(=O)c2ccccc21 (stereo partly shown) [Example 81] | 4.52 to 6.52 | – |
| O=c1[nH]c2ccccc2c(=O)n1C[C@H]1CC[C@H](C(=O)Nc2ccc3ncsc3c2)CC1 [Example 49] | 4.52 to 6.52 | – |
| COCCN1CCN(C(=O)[C@H]2CC[C@H](Cn3c(=O)[nH]c4ccc(OC)cc4c3=O)CC2)CC1=O [Example 88] | 4.52 to 6.52 | – |

Next, values leading:

| pIC50 (Wnt/β-catenin pathway) | pIC50 (DBTRG cells) | SMILES |
| --- | --- | --- |
| 4.52 to 6.52 | 4.52 to 6.05 | COC(=O)N1CCN(C(=O)[C@H]2CC[C@H](Cn3c(=O)c4cc(OC)ccc4n(C)c3=O)CC2)CC1 [Example 175] |
| 4.52 to 6.52 | 4.52 to 6.05 | COc1ccc2c(c1)c(=O)n(C[C@H]1CC[C@H](C(=O)N3CCN(C(=O)c4cncn4C)CC3)CC1)c(=O)n2C [Example 122] |
| 4.52 to 6.52 | 4.52 to 6.05 | COC(=O)N1CCN(C(=O)[C@H]2CC[C@H](Cn3c(=O)[nH]c4ccc(OC)cc4c3=O)CC2)CC1 [Example 116] |
| 4.52 to 6.52 | 4.52 to 6.05 | COc1ccc2[nH]c(=O)n(C[C@H]3CC[C@H](C(=O)N4CCN(C(C)=O)CC4)CC3)c(=O)c2c1 [Example 99] |
| 4.52 to 6.52 | 4.52 to 6.05 | COc1ccc2c(c1)c(=O)n(C[C@H]1CC[C@H](C(=O)N3CCN(C(C)=O)CC3)CC1)c(=O)n2C [Example 136] |
| 4.52 to 6.52 | 4.52 to 6.05 | COc1ccc2c(c1)n(C[C@H]1CC[C@H](C(=O)N3CCN(C(=O)C4CC4)CC3)CC1)c(=O)n2C [Example 135] |
| 4.52 to 6.52 | 4.52 to 6.05 | COc1ccc2[nH]c(=O)n(C[C@H]3CC[C@H](C(=O)N4CCN(C(=O)[C@H]5CCCO5)CC4)CC3)c(=O)c2c1 [Example 109] |
| 4.52 to 6.52 | 4.52 to 6.05 | Cc1ccc2c(n1)n(C[C@H]1CC[C@H](C(=O)N3CCN(C(=O)C4CC4)CC3)CC1)c(=O)n2C [Example 169] |
| 4.52 to 6.52 | 4.52 to 6.05 | COc1ccc2c(c1)c(=O)n(C[C@H]1CC[C@H](C(=O)N3CCN(C)C(=O)C3)CC1)c(=O)n2C [Example 92] |
| 4.52 to 6.52 | 4.52 to 6.05 | COc1ccc2c(c1)c(=O)n(C[C@H]1CC[C@H](C(=O)N3CCN(C(=O)c4ccno4)CC3)CC1)c(=O)n2C [Example 146] |
| 4.52 to 6.52 | – | COc1ccc2c(c1)c(=O)n(C[C@H]1CC[C@H](C(=O)Nc3ccc(C)nc3)CC1)c(=O)n2C [Example 148] |
| 4.52 to 6.52 | – | Cn1c(=O)n(C[C@H]2CC[C@H](C(=O)N3CCOCC3)CC2)c2cc(Cl)ccc21 [Example 181] |
